Assays:
SF-295 = test: NCI-60 screening, CNS Cancer; format: cell-based, human
786-0 = test: NCI-60 screening, Renal Cancer; format: cell-based, human
HCT-15 = test: NCI-60 screening, Colon Cancer; format: cell-based, human
T47D cells = test: Soft agar colony formation assay; format: cell-based, human; conditions: 100 nM concentration
Procedure: Colonies of cancer cells formed in soft agar in the presence and absence of the testing compounds is a standard assay to interpret in-vitro tumorigenic potential in the basal layer. Agar was prepared by mixing 1% DNA grade agar melted and cooled to 40° C. with an equal volume of (2×) Dulbecco's Modified Eagle's Medium (DMEM) to obtain 0.5% agar that was dispersed in a 6-well plate and allowed to solidify. A total of 0.6% agar was prepared in RPMI medium and mixed together with T47D cells (0.5×10^6 cells/mL) and immediately plated on the basal layer in the presence or absence of testing compounds. The cultures were incubated at 37° C. in a CO2 incubator for 2 weeks, and colonies were stained with 0.005% crystal violet and observed under a light microscope.

HCT-116 = test: NCI-60 screening, Colon Cancer; format: cell-based, human
NCI/ADR-RES = test: NCI-60 screening, Ovarian Cancer; format: cell-based, human
NCI-H23 = test: NCI-60 screening, Non-Small Cell Lung Cancer; format: cell-based, human
TK-10 = test: NCI-60 screening, Renal Cancer; format: cell-based, human
OVCAR-3 = test: NCI-60 screening, Ovarian Cancer; format: cell-based, human
Procedure: (§1) EC 330 was also tested using the NCI-60 Screening Methodology. The human tumor cell lines of the cancer screening panel are grown in RPMI 1640 medium containing 5% fetal bovine serum and 2 mM L-glutamine. For a typical screening experiment, cells are inoculated into 96 well microtiter plates in 100 μL at plating densities ranging from 5,000 to 40,000 cells/well depending on the doubling time of individual cell lines. After cell inoculation, the microtiter plates are incubated at 37° C., 5% CO2, 95% air and 100% relative humidity for 24 h prior to addition of experimental drugs. […]
(§2) Following drug addition, the plates are incubated for an additional 48 h at 37° C., 5% CO2, 95% air, and 100% relative humidity. […] Bound stain is subsequently solubilized with 10 mM trizma base, and the absorbance is read on an automated plate reader at a wavelength of 515 nm. […] Using the seven absorbance measurements [time zero, (Tz), control growth, (C), and test growth in the presence of drug at the five concentration levels (Ti)], the percentage growth is calculated at each of the drug concentrations levels. Percentage growth inhibition is calculated as: […]
(§3) Three dose response parameters are calculated for each experimental agent. […] The drug concentration resulting in total growth inhibition (TGI) is calculated from Ti=Tz. […]

SMAD = test: Phosphorylation of SMAD; format: cell-based; conditions: thorough blocking TGF-beta
RXF 393 = test: NCI-60 screening, Renal Cancer; format: cell-based, human
SK-MEL-28 = test: NCI-60 screening, Melanoma; format: cell-based, human
OVCAR-8 = test: NCI-60 screening, Ovarian Cancer; format: cell-based, human
[1] = tested on: human umbilical vein endothelial cells (HUVEC); test: Matrigel in vitro HUVECs tube formation assay (angiogenesis); format: cell-based; conditions: 1 μM concentration, all measured time points
Procedure: Matrigel in vitro HUVECs tube formation assay: The tube formation assay was performed using 12-well plate coated with 100 μL Matrigel basement membrane matrix (BD Bioscience) per well and polymerized at 37° C. for 30 min. Human umbilical vascular endothelial cells (HUVECs) suspended in M199 medium containing 2% FBS were plated on the Matrigel at a density of 2×10^5 cells/well. […] After 8 h, the Matrigel-induced morphological changes were photographed and the extent of capillary tube formation was evaluated by measuring the total tube length per field.

SW-620 = test: NCI-60 screening, Colon Cancer; format: cell-based, human
COLO 205 = test: NCI-60 screening, Colon Cancer; format: cell-based, human
MOLT-4 = test: NCI-60 screening, Leukemia; format: cell-based, human
SN12C = test: NCI-60 screening, Renal Cancer; format: cell-based, human
MDA-MB-468 = test: NCI-60 screening, Breast Cancer; format: cell-based, human
Procedure: as §1, §2, §3

SMILES: C#CC(F)(F)[C@]1(O)CCC2C3CCC4=CC(=O)CCC4=C3C(c3ccc(C4CC4)cc3)C[C@@]21C (stereo partly drawn) [EC330, 17α-(1,1-difluoro-2-propyn-1-yl)-17β-hydroxy-11β-[4-p-(cyclopropyl)phenyl]estra-4,9-dien-3-one]
- TGI (log10TGI) (SF-295): <−8.00
- TGI (log10TGI) (786-0): <−8.00
- TGI (log10TGI) (HCT-15): >−4.00
- colonies formed (T47D cells): complete inhibition or no colonies were formed
- TGI (log10TGI) (HCT-116): −4.55
- TGI (log10TGI) (NCI/ADR-RES): −5.41
- TGI (log10TGI) (NCI-H23): <−8.00
- TGI (log10TGI) (TK-10): −4.91
- TGI (log10TGI) (OVCAR-3): −6.85
- phosphorylation of SMAD (SMAD): indirectly diminish the phosphorylation of SMAD
- TGI (log10TGI) (RXF 393): −5.09
- TGI (log10TGI) (SK-MEL-28): −5.43
- TGI (log10TGI) (OVCAR-8): −4.43
- tube formation [1]: complete abrogation of tube formation
- TGI (log10TGI) (SW-620): −4.79
- TGI (log10TGI) (COLO 205): −5.53
- TGI (log10TGI) (MOLT-4): −5.30
- TGI (log10TGI) (SN12C): −4.58
- TGI (log10TGI) (MDA-MB-468): −6.09

— patent US20200087340A1, “LIF/LIFR ANTAGONIST IN ONCOLOGY AND NONMALIGNANT DISEASES” (Evestra, Inc., priority 2018, published 2020)
